The nature of series [1]: Toxicity against human HuH7 cells harboring HCV genotype 1b bicistronic replicon assessed as inhibition of GAPDH mRNA expression measured 3 days post dose by real time RT-PCR analysis. Type of series: cell-based, Huh-7. (Replicon systems follow genome replication, usually without infectious particles.)
Series [2] concerns Hepatitis C virus. Kind of series: Antiviral activity against HCV genotype 1b Con1 bicistronic replicon infected in human Huh7 cells assessed as replicon RNA expression measured 3 days post dose by real time RT-PCR analysis. Type of series: functional, organism-based, Hepacivirus hominis. Conditions: isolate Con1, Huh-7, 72 h.

Where only a bound is given, the exact number is not on record here.

Broadly, the IC50 is the concentration needed to halve the response being measured. Usually EC50 stands for the concentration giving half of the maximal effect. On to `Cc1cc(NS(=O)(=O)C(C)(C)C)ccc1-c1c(C(N)=O)c2cc(F)c(OC(F)F)cc2n1-c1ccccc1`, for which, in series [1], the half-maximal inhibitory concentration (IC50) at 3 days was over 10 µM. Besides, the concentration giving a half-maximal response (EC50) in series [2] is 2 nM.
For `CCc1cc2c(cc1F)c(C(N)=O)c(-c1ccc(NS(=O)(=O)C(C)C)cc1)n2C1CCCC1`, in series [1], the IC50 at 3 days is over 10 µM. The concentration for a half-maximal effect (EC50) in series [2] came out at 68 nM.
With `CC(C)(C)S(=O)(=O)Nc1ccc(-c2c(C(N)=O)c3cc(F)c(OC(F)F)cc3n2C2CCCCC2)cc1F`, the half-maximal inhibitory concentration (IC50) at 3 days in series [1] is over 1 µM. The EC50 in series [2] is 3 nM.
The corresponding values for `CC(C)(C)S(=O)(=O)Nc1ccc(-c2c(C(N)=O)c3cc(F)c(OC(F)F)cc3n2C2CCCCC2)cc1Cl` are over 1 µM and 305 nM.
For `Cc1cc2c(cc1F)c(C(N)=O)c(-c1ccc(NS(=O)(=O)C(C)(C)C)cc1)n2C1CCOCC1` the same measures were over 10 µM and 17 nM.
The corresponding values for `CC(C)(C)S(=O)(=O)Nc1ccc(-c2c(C(N)=O)c3c(F)cc(C(F)F)cc3n2C2CCCC2)cc1` are over 10 µM and 4 nM.
`COc1cc2c(cc1F)c(C(N)=O)c(-c1ccc(NS(=O)(=O)C(C)(C)C)cc1)n2C1CCCC1`: the IC50 at 3 days in series [1] was over 10 µM. The EC50 in series [2] is 59 nM.
In the case of `CCc1cc2c(cc1F)c(C(N)=O)c(-c1cnc(NS(=O)(=O)C(C)(C)C)nc1)n2C1CCCCC1`, in series [1], the concentration for half-maximal inhibition (IC50) at 3 days is over 10 µM. The EC50 in series [2] worked out at 2100 nM.
For `Cc1cc2c(cc1F)c(C(N)=O)c(-c1ccc(NS(=O)(=O)C(C)(C)C)cc1)n2-c1cccnc1` the same measures were over 10 µM and 180 nM.
For `CC(C)c1cc2c(cc1F)c(C(N)=O)c(-c1ccc(NS(=O)(=O)C(C)(C)C)cc1)n2C1CCCC1`, the IC50 at 3 days in series [1] is over 10 µM. For the same molecule, the EC50 in series [2] was 170 nM.
Turning to `Cc1cc(-c2c(C(N)=O)c3cc(F)c(OC(F)F)cc3n2-c2ccccc2)ccc1NS(=O)(=O)C(C)(C)C`, the IC50 at 3 days in series [1] is over 10 µM. Further, in series [2], the EC50 is 120 nM.
On to `CCc1cc2c(cc1F)c(C(N)=O)c(-c1ccc(NS(=O)(=O)C(C)(C)C)cc1)n2C1CCCCC1`, for which the IC50 at 3 days in series [1] was over 10 µM. In addition, the EC50 in series [2] is 4 nM.
The corresponding values for `Cc1cc(F)c2c(C(N)=O)c(-c3ccc(NS(=O)(=O)C(C)(C)C)cc3)n(C3CCCC3)c2c1` are over 10 µM and 34 nM.
The corresponding values for `CCOc1cc2c(cc1F)c(C(N)=O)c(-c1ccc(NS(=O)(=O)C(C)(C)C)cc1)n2C1CCCC1` are over 10 µM and 150 nM.
For `Cc1cc2c(cc1F)c(C(N)=O)c(-c1ccc(NS(=O)(=O)C(C)(C)C)cc1)n2-c1ccncc1` the same measures were over 10 µM and 68 nM.
As for `Cc1cc(-c2c(C(N)=O)c3cc(F)c(OC(F)F)cc3n2C2CCCCC2)ccc1NS(=O)(=O)C(C)(C)C`, the IC50 at 3 days in series [1] was over 1 µM. Further, the 50% effective concentration (EC50) in series [2] worked out at 36 nM.
For `CCCc1cc2c(cc1F)c(C(N)=O)c(-c1ccc(NS(=O)(=O)C(C)(C)C)cc1)n2C1CCCC1` the same measures were 10 µM and 1800 nM.
In the case of `Cc1cc2c(cc1F)c(C(N)=O)c(-c1ccc(NS(=O)(=O)C(C)C)cc1)n2C1CCCC1`, the IC50 at 3 days in series [1] is over 10 µM. The EC50 in series [2] turned out to be 56 nM.
Regarding `CCCS(=O)(=O)Nc1ccc(-c2c(C(N)=O)c3cc(F)c(C)cc3n2C2CCCC2)cc1`, the 50% inhibitory concentration (IC50) at 3 days in series [1] is over 10 µM. Moreover, the EC50 in series [2] amounted to 870 nM.
For `CCc1cc2c(cc1F)c(C(N)=O)c(-c1ccc(NS(=O)(=O)C(C)(C)C)nc1)n2C1CCCCC1` the same measures were over 10 µM and 19 nM.
For `CCc1cc2c(cc1F)c(C(N)=O)c(-c1ccc(NS(=O)(=O)C(C)(C)C)cn1)n2C1CCCCC1`, the IC50 at 3 days in series [1] was over 10 µM. Besides, in series [2], the 50% effective concentration (EC50) turned out to be 68 nM.
As to `CC(C)(C)S(=O)(=O)Nc1ccc(-c2c(C(N)=O)c3cc(F)c(C4CC4)cc3n2C2CCCC2)cc1`, the 50% inhibitory concentration (IC50) at 3 days in series [1] is over 10 µM. Besides, in series [2], the concentration for a half-maximal effect (EC50) turned out to be 13 nM.
The corresponding values for `Cc1cc2c(cc1F)c(C(N)=O)c(-c1ccc(NS(=O)(=O)C(C)(C)C)cc1)n2-c1ccc(Cl)cc1` are over 10 µM and 43 nM.

These data come from ChEMBL document CHEMBL3751735, “Discovery of 2-(4-sulfonamidophenyl)-indole 3-carboxamides as potent and selective inhibitors with broad hepatitis C virus genotype activity targeting HCV NS4B” (Bioorg Med Chem Lett, 2016).
